Measured values taken from the NIST ThermoML archive (doi:10.1016/j.tca.2017.09.002).
Numbers after ± are expanded uncertainties.

Test: excess molar enthalpy (molar enthalpy of mixing); xn = mol fraction of the nth substance listed
Details: 1273 K, 105 kPa, Liquid, Calvet calorimetry

[Ni] [nickel] + [Bi]
Details	excess molar enthalpy [kJ/mol]
x1 = 0.0552	-0.354 ± 0.06
x1 = 0.1056	-0.69 ± 0.06
x1 = 0.1516	-0.949 ± 0.08
x1 = 0.1935	-1.14 ± 0.08
x1 = 0.2321	-1.26 ± 0.1
x1 = 0.2677	-1.34 ± 0.1
x1 = 0.3011	-1.38 ± 0.1
x1 = 0.3319	-1.36 ± 0.1
